“Also recorded” adds a separate entry of the source. One block for each molecule: values may come before it. *1 amine or outer side, *2 acyl side, *3 side chain or, on linkers, in order; H or OH if unused. Where a SMILES comes first, the peptide text is derived from it. Where no end group is shown, it is not given here. [ ]: non-standard residue; d: D form. X1 = C=CC(C)(C)n1cc(C[C@@H](N[*:1])C(=O)[*:2])c2ccccc21; NMeF = CN[C@@H](Cc1ccccc1)C(=O)O; dNMeF = CN[C@H](Cc1ccccc1)C(=O)O
Key:
NCI-H69 cells = conditions: at 50 μM, serum-free media; cited from earlier work
Text: (§1) Several other related short chain SP antagonists have been investigated in the literature. […] Recently, Sarvi et al.[19] designed and synthesised a panel of eight substance P-peptide analogues ranging from a pentamer to 11-mer sequences. They compared their IC50 values, relative to SPG, using H345 and H69 cell lines. All an ...

H345 xenografts = conditions: subcutaneous injections, 25 mg kg^–1; cited from earlier work
Description: The relative tumour volume (RTV) as a percentage was calculated by dividing the tumour volumes on measured days by the tumour volume on day 0, before treatment. […] Excluding this single animal from the treated group, the tumour growth inhibition (TGI, Fig. 5) was calculated at day 7 as TGI (%) = (1 – T/C) × 100, where T indicates the mean tumour volume (mm^3) of the test group and C indicates the mean tumour volume of the vehicle-treated group. At day 7, the tumour volumes of pre ...

H69 = conditions: treatment for 72 hours; cited from earlier work
Text: (§2) Swiss Albino cell line 3T3 and two SCLC cell lines, DMS79 and H69, were selected for screening. 3T3 cells are fibroblast non-cancerous cells and were used to show the selectivity of the peptides for cancer treatment. The DMS79 cell line is a variant cell line model which is more resistant to chemotherapy as it originates from a patient with SCLC who had undergone treatment with cytoxan, vincristine, methotrexate and radiation therapy. On the other hand, H69 represents a chemo-naive SCLC cell line model. Cell viability was assessed by quantifying the reduction of resazurin dye to fluorescent re ...

H345 and H69 cell lines = conditions: cited from earlier work
Text: as §1

[1] = phase I clinical trial, cited from earlier work
Text: Recognising the anti-proliferative action together with other preclinical evidence supporting broad-spectrum neuropeptide antagonism prompted a phase I clinical trial with SPG,[11] the results of which were encouraging. […] This, combined with low potency of the peptide, necessitated prolonged dosing by infusion to maintain therapeutic concentrati ...

[2] = system: 3T3 Swiss Albino fibroblasts; type: cell-based, mouse; conditions: 48 h
Text: as §2, with “resorufin.[28]–[31] H69 and DMS79 cells were seeded in 96-well plates at a density of 10 000 cells per well and maintained in 10% FBS/RPMI-1640 for 48 hours at 37 °C in a humidified air atmosphere of 5% CO2 in the presence of various peptide concentrations. […] The dye was then applied for 5 hours before measuring fluorescence. […]” for “re ...”
(§3) Complete medium containing resazurin was used as background. […] Then resazurin (20 µl) was added to each well and kept at 37 °C in a humidified air atmosphere of 5% CO2 for 5 hours before fluorescence readings were recorded. […]
(§4) Assessment of apoptosis was carried out through a fluorescent technique by using Acridine Orange (AO) and Ethidium Bromide (EB) double staining. […] AO emits green fluorescence while EB emits red/orange fluorescence when […]

[3] = system: H69 small cell lung cancer cell line; experiment: Cell viability assay (resazurin) on H69 cells; type: cell-based, human; conditions: 48 h
Text: Swiss Albino cell line 3T3 and two SCLC cell lines, DMS79 and H69, were selected for screening. 3T3 cells are fibroblast non-cancerous cells and were used to show the selectivity of the peptides for cancer treatment. The DMS79 cell line is a variant cell line model which is more resistant to chemotherapy as it originates from a patient with SCLC who had undergone treatment with cytoxan, vincristine, methotrexate and radiation therapy. On the other hand, H69 represents a chemo-naive SCLC cell line model. Cell viability was assessed by quantifying the reduction of resazurin dye to fluorescent resorufin.[28]–[31] H69 and DMS79 cells were seeded in 96-well plates at a density of 10 000 cells per well and maintained in 10% FBS/RPMI-1640 for 48 hours at 37 °C in a humidified air atmosphere of 5% CO2 in the presence of various peptide concentrations. 3T3 cells were maintained under the same conditions but using 10% FBS/DMEM and a seeding density of 2500 cells per well. The dye was then applied for 5 hours before measuring fluorescence. […] The peptide thus had the potential to be tested in vivo subject to its biocompatibility with plasma.
Growth media, RPMI-1640 (with L-glutamine and NaHCO3) and DMEM, Dulbecco’s PBS (without calcium chloride and magnesium chloride), and Resazurin sodium salt were obtained from Sigma-Aldrich®. Human lung small cell carcinoma (H69 (ECACC 91091802)) and Mouse Swiss Albino embryo fibroblast (3T3 Swiss Albino (ECACC 85022108)) were from European Collection of Authenticated Cell Cultures (ECACC, Public Health England). […]
as §3, §4

[4] = system: DMS79 small cell lung cancer cell line; experiment: Cell viability assay (resazurin) on DMS79 cells; type: cell-based, human; conditions: 48 h
Text: Swiss Albino cell line 3T3 and two SCLC cell lines, DMS79 and H69, were selected for screening. 3T3 cells are fibroblast non-cancerous cells and were used to show the selectivity of the peptides for cancer treatment. The DMS79 cell line is a variant cell line model which is more resistant to chemotherapy as it originates from a patient with SCLC who had undergone treatment with cytoxan, vincristine, methotrexate and radiation therapy. On the other hand, H69 represents a chemo-naive SCLC cell line model. Cell viability was assessed by quantifying the reduction of resazurin dye to fluorescent resorufin.[28]–[31] H69 and DMS79 cells were seeded in 96-well plates at a density of 10 000 cells per well and maintained in 10% FBS/RPMI-1640 for 48 hours at 37 °C in a humidified air atmosphere of 5% CO2 in the presence of various peptide concentrations. […] The dye was then applied for 5 hours before measuring fluorescence. […]
as §3, §4

[5] = Peptide stability in mouse plasma (HPLC); type: in vitro ADME; conditions: neat mouse plasma, 37 °C; for stability in mouse plasma over 3 hour incubation: 400 µg/ml, 0 and 3 h, RP-HPLC C8, 220 nm, triplicate
Description: (§5) Plasma drug interaction affects the ability of the drug to distribute into tissues. To determine the extent of plasma binding to peptide 2, equilibrium dialysis (Cyprotex Ltd) was carried out. A 5 μM solution of peptide in PBS at pH 7.5 in 0.5% DMSO was mixed with neat human plasma in a total volume of 0.15 ml. After equilibrium at 37 °C, aliquots were taken from both sides of the membrane to determine the fraction of bound peptide. […] While in circulation, the peptide needs to be stable for a few hours to accumulate in tumours. It is commonly accepted that unmodified peptides are highly prone to protease digestion in plasma, leading to rapid degradation within a few minutes. Peptides 1 and 2 were subjected to stability testing in mouse plasma. The peptides dissolved in neat plasma (0.2 ml) were incubated at 37 °C. Aliquots (20 μl) were taken at 0 and 3 hour intervals in triplicate for analysis by HPLC. […] A plasma stability of 3 hours is considered as a sufficient time window to accumulate in tumour for efficacy studies.
4. Peptides stability in mouse plasma
Eppendorf® tubes were used for sample preparations. HPLC microvials were bought from Sigma-Aldrich®. HPLC analysis was performed using a C8 column (ACE 5 C8 – 250 X 4.6mm id) on a PerkinElmer Series 200 machine.
4.2. Peptides plasma stability
Peptides were added to neat mouse plasma at a concentration of 400 µg/ml and placed inside an incubator at 37 °C for 3 hours. Aliquots (20 µl) were taken at 0 and 3 hour periods. […] Then 80 µl of the supernatant was added to 0.1% TFA/H2O (120 µl) and transferred into a HPLC microvial to be analysed using the C8 column. […]
DMS79 cells were injected subcutaneously into ten CBA nude female mice (bred in house) at 5x10^6 cells/mouse in 0.1 ml of serum free RPMI-1640 medium containing 50% matrigel (Scientific Laboratory Supplies, Surrey, UK) as described in our recent publication (Reference 38). Tumours were measured and mice weighed 3 times a week throughout the study. Tumour volumes were calculated by multiplying the length, width and depth of tumors. […]

[6] = Plasma binding by equilibrium dialysis (Cyprotex Ltd); type: in vitro ADME; conditions: neat human plasma
Description: as §5

[7] = Aqueous solubility (observation on dosing solutions); type: physicochemical; conditions: observation while preparing dosing solutions; higher concentration gave significant precipitation
[8] = up to the concentration of 30 μM, resazurin

Molecule: D-MePhe–D-Trp–Phe–D-Trp–Leu-MPA [NY3521]
inhibition of growth of NCI-H69 cells (NCI-H69 cells): completely inhibited

Molecule: [dR]PKP[dW]Q[dW]F[dW][dL]L [11-mer]
tumour growth (H345 xenografts): significant reduction in tumour growth
IC50 (H69): 4.96 ± 0.64 µM
potency relative to SPG (IC50 values) (H345 and H69 cell lines): 3 to 4 fold

IC50 [3]: > 30 µM
IC50 [4]: > 30 µM
Molecule: CSCC[C@H](NC(=O)[C@H](CC(C)C)NC(=O)[C@@H](Cc1c[nH]c2ccccc12)NC(=O)[C@H](Cc1ccccc1)N(C)C(=O)[C@@H](Cc1c[nH]c2ccccc12)NC(=O)[C@@H](N)CCCNC(=N)N)C(N)=O [SPG, Arg–D-Trp–NMePhe–D-Trp–Leu–Met-NH2] (H-R[dW][NMeF][dW]LM-NH2)
elimination from plasma ([1]; resulting in poor systemic bioavailability): quickly eliminated from plasma
toxicity [1]: minimal toxicity
IC50 [2]: > 30 µM
inhibitory effect (cytotoxicity profile), H69 [3, 8]: no inhibitory effect
inhibitory effect (cytotoxicity profile), DMS79 [4, 8]: no inhibitory effect

Molecule: D-MePhe–D-Trp–Phe–D-Trp–LeuΨ(CH2NH)Leu-NH2 [NY3460]
inhibition of growth of NCI-H69 cells (NCI-H69 cells): completely inhibited

stability in mouse plasma over 3 hour incubation [5]: remained largely intact
Molecule: CN[C@H](Cc1ccccc1)C(=O)N[C@H](Cc1c[nH]c2ccccc12)C(=O)N[C@@H](Cc1ccccc1)C(=O)N[C@H](Cc1c[nH]c2ccccc12)C(=O)N[C@@H](CC(C)C)C(N)=O [peptide 1] (H-[dNMeF][dW]F[dW]L-NH2)

fraction unbound at 5 µM ([6]; 5 μM peptide in PBS pH 7.5 with 0.5% DMSO, total volume 0.15 ml, 37 °C, mean): 0.728 ± 0.124
peptide unbound ([6]; 5 μM, PBS pH 7.5, 37 °C): 73%
time of resisting degradation by plasma ([5]; HPLC): at least 3 hours
Molecule: C=CC(C)(C)n1cc(C[C@@H](NC(=O)[C@H](Cc2ccccc2)NC(=O)[C@@H](Cc2c[nH]c3ccccc23)NC(=O)[C@@H](Cc2ccccc2)NC)C(=O)N[C@@H](CC(C)C)C(N)=O)c2ccccc21 [peptide 2, NMeDPhe-DTrp-Phe-DTrp(N-tert-prenyl)-Leu-NH2] (H-[dNMeF][dW]F[X1]L-NH2)
aqueous solubility [7]: limited aqueous solubility; also recorded: lower aqueous solubility than SPG
cytotoxicity enhancement of 2 over pentamer 1 (comparison of IC50 values) ([3]; depending on the cell line (DMS79 and H69)): 5 to 10 fold
stability in mouse plasma over 3 hour incubation [5]: remained largely intact; also recorded: a small percentage of degradation was noted

Reference: PMC6072501, “N-tert-Prenylation of the indole ring improves the cytotoxicity of a short antagonist G analogue against small cell lung cancer” (MedChemComm, 2017)
